Laboratory results: patent US20120269815A1, “NEUROTROPHINS AND USES THEREOF” (Regents of the University of Minnesota, priority 2008, published 2012)
No end group written: not given here.

Tests used:
p75^NTR = target: T1, p75^NTR (Homo sapiens, UniProt P08138); test: Fluorescence-labeled TUF1 peptide binding to COS7 cells expressing p75NTR; settings: labeled peptide 5 nM, 90 min, COS7 cells transfected with pCMV-SPORT6-p75
T1 construct: host or cells: COS7
T1 sequence (P08138 29-427): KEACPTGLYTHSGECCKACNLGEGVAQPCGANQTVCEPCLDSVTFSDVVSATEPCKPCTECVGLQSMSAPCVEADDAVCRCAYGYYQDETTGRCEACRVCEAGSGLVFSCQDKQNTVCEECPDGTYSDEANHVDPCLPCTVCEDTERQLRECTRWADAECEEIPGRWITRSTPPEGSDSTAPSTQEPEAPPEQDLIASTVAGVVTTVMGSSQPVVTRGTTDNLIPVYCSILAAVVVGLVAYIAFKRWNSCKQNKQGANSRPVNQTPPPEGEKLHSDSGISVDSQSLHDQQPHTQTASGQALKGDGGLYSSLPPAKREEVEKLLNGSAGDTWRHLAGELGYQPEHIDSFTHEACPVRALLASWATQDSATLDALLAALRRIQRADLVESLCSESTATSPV
Description: (§1) COS7 cells were seeded at 10,000 cells/well onto a 18 mm coverslip in a 12-well plate. Cells were allowed to settle overnight in a cell culture incubator (NuAire NU-8600, NuAire, Inc., Plymouth, Minn.) set at 37° C. and 5% CO2. Cells were transfected with pCMV-eGFP (Clontech Laboratories, Inc., Mountain View, Calif.) or pCMV-SPORT6-p75 (ATCC) using Fugene HD (Roche Diagnostics Corp., Indianapolis, Ind.) and were incubated overnight. The binding assays were carried out according to Horton et al. with modifications. Synthetic TUF1 peptides (TUF1[43-54] (SEQ ID NO:1) and TUF1[24-40] (SEQ ID NO:3) were generated (via Sigma Genosys, Sigma-Aldrich Co. St. Louis, Mo.) and were conjugated per manufacturer's recommendation with DyLight 549 NHS Ester (Thermo Fisher Scientific, Waltham, Mass.), which have similar spectra to Cy3 dye. Unconjugated dye was removed with a dye removal column (Thermo Fisher Scientific, Waltham, Mass.). Labeled peptides were diluted to 5 nM in 0.15 M Sucrose/PBS and added (1.0 ml/well) to transfected COS7 cells. The binding reaction was incubated in the dark at room temperature for 90 minutes. Cells were rinsed thoroughly with PBS+0.05% Tween-20 to remove unbound peptide. Cells were then fixed with 4% Paraformaldehyde (5 minutes).
Following fixation, cells were permeabilized in PBS+0.1% Tween-20 for 10 minutes, rinsed thoroughly with PBS, and blocked in BSA (10 mg/ml) for 10 minutes. Cells were incubated with rabbit anti-p75^NTR antibody (1:10,000 dilution) for 30 minutes. Excess antibody was removed with PBS washes. Cells were then incubated with Alexa-488 goat anti-rabbit antibody (1:500 dilution, Invitrogen). Cells were again rinsed thoroughly with PBS and mounted in Vectashield mounting media plus DAPI (Vector Laboratories, Inc., Burlingame, Calif.).
COS7 cells were seeded at 10,000 cells/well onto an 18 mm coverslip in a 12-well plate. Cells were allowed to settle overnight in a cell culture incubator (NuAire NU-8600, NuAire, Inc., Plymouth, Minn.) set at 37° C. and 5% CO2. Cells were transfected with pCMV-eGFP (Clontech Laboratories, Inc., Burlingame, Calif.) or pCMV-SPORT6-p75 (ATCC) using Fugene HD (Roche Diagnostics Corp., Indianapolis, Ind.) and were incubated overnight. The binding assays were carried out according to Horton et al. with modifications. Synthetic TUF1 peptides (TUF1[43-54] (SEQ ID NO:1) and TUF1[24-40] (SEQ ID NO:3)) were generated (via Sigma Genosys, Sigma-Aldrich, St. Louis, Mo.) and were conjugated per manufacturer's recommendation with DyLight 549 NHS Ester (Thermo Fisher Scientific Inc., Waltham, Mass.), which have similar spectra to Cy3 dye. Unconjugated dye was removed with a dye removal column (Thermo Fisher Scientific Inc., Waltham, Mass.). Labeled peptides were diluted to 5 nM in 0.15M Sucrose/PBS and added (1.0 ml/well) to transfected COS7 cells. The binding reaction was incubated in the dark at room temperature for 90 min. Cells were rinsed thoroughly with PBS+0.05% Tween-20 to remove unbound peptide. Cells were then fixed with 4% Paraformaldehyde (5 minutes).
Following fixation, cells were permeabilized in PBS+0.1% Tween-20 for 10 minutes, rinsed thoroughly with PBS, and blocked in BSA (10 mg/ml) for 10 minutes. Cells were incubated with rabbit anti-p75^NTR antibody (1:10,000 dilution) for 30 minutes. Excess antibody was removed with PBS washes. Cells were then incubated with Alexa-488-goat anti-rabbit antibody (1:500 dilution, Invitrogen Corp., Carlsbad, Calif.). […]

[1] = tested on: unknown receptor expressed in COS7 cell; test: Fluorescence-labeled TUF1 peptide binding to control (pCMV-GFP) COS7 cells; settings: labeled peptide 5 nM, COS7 cells transfected with pCMV-GFP
Description: as §1, with “minutes). […]” for “minutes).”

[2] = tested on: Cortical neurons and glia; test: Glutamate-induced excitotoxicity in cultured cortical neurons; type: cell-based, mice; settings: 500 μM glutamate, then 0.2-1.8 μM peptide for 24 hours
Description: To assess the trophic effect of TUF1 peptide on primary culture neurons, we assayed the effect of TUF1 supplementation on glutamate-induced excitotoxicity in neuronal cultures. Cortical neurons and glia were cultured from newborn mice for seven days. Cultures were then treated with 500 μM glutamate (diluted in N2tox solution, Invitrogen Corp., Carlsbad, Calif.) and incubated at 37° C. for ten minutes. Glutamate was removed from cultures by two washes with EBSS media (Invitrogen Corp., Carlsbad, Calif.). Cultures were then incubated in EBSS media supplemented with 0.0 μM, 0.2 μM, 0.4 μM, 0.9 μM, or 1.8 μM TUF1 peptide for 24 hours. Surviving neurons from cultures were manually counted by Trypan Blue exclusion using an inverted microscope. Values are means±SD, n=6-8/group.

## AYKSYVRALPLL [TUF1[43-54]]
p75^NTR
  binding to p75^NTR: binds more readily to p75 neurotrophic receptor
p75^NTR; listed as TUF1^43-54
  binding to p75^NTR: found to bind the p75^NTR
p75^NTR; listed as TUF1 peptide
  binding to p75^NTR: binds p75 receptor expressed in COS cells
[1]
  binding to unknown receptor expressed in COS7 cell: binds to an unknown receptor expressed in COS7 cell at a low level
[2]
  neural excitotoxicity induced by glutamate: reduces neural excitotoxicity induced by glutamate
